Measurements reported in paper PMC11219871, “Epigenetic-based differentiation therapy for Acute Myeloid Leukemia” (Nature Communications, 2024).
Values joined by “and” are separate entries in the source; they are usually repeats but may differ in a detail not shown here. Equal values may be shown once. Read-outs that look alike come from different tables or passages of the source.

Assays:
[1] = test system: M-07e; assay: Cell proliferation assay: GI50; format: cell-based; conditions: replicates 1-3
Description: (§1) Cell proliferation was analyzed using the CellTiter 96 Aqueous One Solution Cell Proliferation Assay (Promega, Madison, WI). This is a colorimetric method for determining the number of viable cells in proliferation. For the assay, suspension cells were cultured in triplicate at a density of 1 × 10^6 cells/mL in 96-well plates (100.000 cells/well, 100 µL/well), using only the 60 inner wells to avoid any border effects. After 48 h of treatment with different doses of each compound (0, 0.001, 0.01, 0.1, 0.2, 0.4, 0.6, 0.8, 1, 2, 3, 4, 5 and 10 µM), the plates were centrifuged at 800 g for 10 min followed by removal of the medium. Then, the cells were incubated with 100 μL/well of medium and 20 μL/well of CellTiter 96 Aqueous One Solution reagent for 1–3 h. The absorbance was recorded at 490 and 650 nm as reference wavelengths using 96-well plate readers until the absorbance of the control cells without treatment was approximately 0.8 AU. The background absorbance was measured in wells with only cell line medium and solution reagent. First, the average of the absorbance from the control wells was subtracted from all other absorbance values. Data were calculated as the percentage of total absorbance of treated cells/absorbance of non-treated cells. The GI50 values of the different compounds were determined using non-linear regression plots made with GraphPad Prism v5 software.

[2] = test system: UT-7; assay: Cell proliferation assay: GI50; format: cell-based
Description: as §1

[3] = test system: KASUMI-1; assay: Cell proliferation assay: GI50; format: cell-based
Description: as §1

[4] = test system: MONO-MAC-6; assay: Cell proliferation assay: GI50; format: cell-based
Description: as §1

[5] = test system: OCI-AML3; assay: Cell proliferation assay: GI50; format: cell-based
Description: as §1

[6] = test system: TF-1; assay: Cell proliferation assay: GI50; format: cell-based
Description: as §1

[7] = test system: HEL; assay: Cell proliferation assay: GI50; format: cell-based; conditions: replicates 1-3
Description: as §1

[8] = test system: primary AML patient samples; assay: Differentiation assay, CD11b flow cytometry in primary samples; format: cell-based, human; conditions: for CD11b-positive cells (%): daily 48 h
Description: Next, the cells were washed twice with phosphate-buffered saline (PBS) and resuspended in 1X Binding Buffer at a concentration of 1 × 10^6 cells/mL. An 8-µL aliquot of APC-CD11b (BD Pharmingen, Franklin Lakes, NJ, USA) and 1 µL of FITC annexin-V (AV) (BD Pharmingen, Franklin Lakes, NJ, USA) antibodies were added and incubated for 15 min at room temperature in the dark. Finally, after the addition of 400 µL of 1X Binding Buffer to each tube, samples were collected on a BD FACSCanto flow cytometer (Becton Dickinson, San Jose, CA, USA) and analyzed using FlowJo software.
Peripheral blood (PB) specimens were obtained from preliminarily diagnosed AML patients who had not received any treatment before specimens were collected. All patients gave informed consent for their participation in this study, which was approved by the Clinical Research Ethics Committee of Clínica Universidad de Navarra. Written informed consent was obtained from each participant. PB was mixed with an ammonium chloride-potassium (ACK) buffer lysis (0.15 mol/L NH4Cl, 10 mmol/L KHCO3, 0.1 mmol/L ethylenediaminetetraacetic acid, pH 7.2) at a 1:2 volume ratio by gentle inversion, incubated for 10 min and centrifuged at 200 g for 10 min. The cell pellet was washed twice with PBS and finally resuspended in EGM2 medium (Cambrex Bioscience, Walkersville, MD). EGM2 contains 2% fetal calf serum, hydrocortisone, heparin, antibiotics, epidermal growth factor, human fibroblast growth factor, insulin-like growth factor, vascular endothelial growth factor, and ascorbic acid. The cells were plated at 1 × 10^6 cells/mL and treated daily with 200 and 500 nM of CM-444 and CM-1758 for 48 h. Next, the differentiation assay was performed as described above.

[9] = test system: MOLM-13; assay: Cell proliferation assay: GI50; format: cell-based, human
Method in brief: (§2)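 Suspension cells at 1 × 10^6 cells/mL were treated in triplicate, then incubated 1–3 h with MTS reagent (CellTiter 96 AQueous One) for colorimetric viable-cell read-out. After medium-only background subtraction, absorbance was expressed as % of untreated cells, and GI50 was fitted by non-linear regression.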

[10] = test system: ML-2; assay: Cell proliferation assay: GI50; format: cell-based, human
Method in brief: as §2

[11] = test system: HL-60; assay: Cell proliferation assay: GI50; format: cell-based, human
Method in brief: as §2

[12] = test system: MV4-11; assay: Cell proliferation assay: GI50; format: cell-based, human
Method in brief: as §2

[13] = Homo sapiens, UT7, UT-7, replicates 1-3
[14] = Homo sapiens, Kasumi 1, 48 h, KASUMI-1, 48 h
[15] = Homo sapiens, Kasumi 1, KASUMI-1, replicates 1-3
[16] = Homo sapiens, OCI-AML-3, OCI-AML3, 48 h
[17] = Homo sapiens, OCI-AML-3, OCI-AML3, replicates 1-3
[18] = Homo sapiens, TF-1, TF-1, replicates 1-3
[19] = primary AML patient sample 1 (Figure 2C)
[20] = primary AML patient sample 2 (Figure 2C)
[21] = primary AML patient sample 3 (Figure 2C)
[22] = primary AML patient sample 4 (Figure 2C)
[23] = primary AML patient sample 5 (Figure 2C)
[24] = primary AML patient sample 6 (Figure 2C)
[25] = primary AML patient sample 7 (Figure 2C)
[26] = primary AML patient sample 8 (Figure 2C)
[27] = Homo sapiens, MOLM-13, MOLM-13, replicates 1-3
[28] = Homo sapiens, ML-2, ML-2, replicates 1-3
[29] = HL-60, replicates 1-3, read-out: GI50
[30] = Homo sapiens, HL-60, 48 h, 48 h, read-out: HL-60 GI50
[31] = Homo sapiens, HL-60, HL-60, replicates 1-3, read-out: GI50

COc1cc2nc(-c3ccc(C)o3)cc(NCC3CCN(c4ncc(C(=O)NO)cn4)CC3)c2cc1OC [CM-444, 2-[4-[[[6,7-dimethoxy-2-(5-methyl-2-furyl)-4-quinolyl]amino]methyl]-1-piperidyl]pyrimidine-5-carbohydroxamic acid]
GI50 [1]: 1330 nM and 1200 nM and 1180 nM | GI50 ([2]; Homo sapiens, UT7, 48 h, UT-7, 48 h): 970 nM | GI50 [2, 13]: 875 nM | GI50 ([2]; UT-7, replicates 1-3): 1070 nM and 965 nM | GI50 [3, 14]: 668 nM | GI50 [3, 15]: 521 nM | GI50 ([3]; KASUMI-1, replicates 1-3): 698 nM and 786 nM | GI50 ([4]; Homo sapiens, MONO-MAC-6, 48 h): 470 nM | GI50 ([4]; MONO-MAC-6, replicates 1-3): 215 nM and 607 nM and 588 nM | GI50 [5, 16]: > 10000 nM | GI50 [5, 17]: > 10000 nM | GI50 ([5]; OCI-AML3, replicates 1-3): > 10000 nM | GI50 [6, 18]: 3870 nM | GI50 ([6]; TF-1, replicates 1-3): 3250 nM and 3500 nM | GI50 ([7]; Homo sapiens): 1590 nM | GI50 [7]: 1120 nM and 938 nM | CD11b (%) [8, 19]: 46.62% | CD11b (%) [8, 20]: 31.74% | CD11b (%) [8, 21]: 20.47% | CD11b (%) [8, 22]: 39.54% | CD11b (%) [8, 23]: 32.14% | CD11b (%) [8, 24]: 38.57% | CD11b (%) [8, 25]: 49.19% | CD11b (%) [8, 26]: 23.69% | CD11b-positive cells (%) ([8]; sample AML-1, 200 nM): 35.2% | CD11b-positive cells (%) ([8]; sample AML-1, 500 nM): 46.6% | CD11b-positive cells (%) ([8]; sample AML-2, 200 nM): 16.8% | CD11b-positive cells (%) ([8]; sample AML-2, 500 nM): 31.7% | CD11b-positive cells (%) ([8]; sample AML-3, 200 nM): 12.3% | CD11b-positive cells (%) ([8]; sample AML-3, 500 nM): 20.5% | CD11b-positive cells (%) ([8]; sample AML-4, 200 nM): 20.8% | CD11b-positive cells (%) ([8]; sample AML-4, 500 nM): 39.5% | CD11b-positive cells (%) ([8]; sample AML-5, 200 nM): 20.2% | CD11b-positive cells (%) ([8]; sample AML-5, 500 nM): 32.1% | CD11b-positive cells (%) ([8]; sample AML-6, 200 nM): 29.7% | CD11b-positive cells (%) ([8]; sample AML-6, 500 nM): 38.6% | CD11b-positive cells (%) ([8]; sample AML-7, 200 nM): 32.9% | CD11b-positive cells (%) ([8]; sample AML-7, 500 nM): 49.2% | CD11b-positive cells (%) ([8]; sample AML-8, 200 nM): 15.3% | CD11b-positive cells (%) ([8]; sample AML-8, 500 nM): 23.7% | GI50 [9, 27]: 1370 nM | GI50 ([9]; MOLM-13, replicates 1-3): 1120 nM and 883 nM | GI50 [10, 28]: 988 nM | GI50 ([10]; ML-2, replicates 1-3): 1150 nM and 956 nM | GI50 [11, 29]: 987 nM and 1020 nM | GI50 [11, 30]: 1090 nM | GI50 [11, 31]: 1260 nM | GI50 ([12]; Homo sapiens, MV4-11, 48 h): 621 nM | GI50 ([12]; Homo sapiens, MV4-11, MV4-11, replicates 1-3): 458 nM | GI50 ([12]; MV4-11, replicates 1-3): 765 nM and 641 nM

COc1cc2nc(-c3cc(C)oc3C)cc(NCC3CCN(c4ncc(C(=O)NO)cn4)CC3)c2cc1OC [CM-1758, 2-[4-[[[2-(2,5-dimethyl-3-furyl)-6,7-dimethoxy-4-quinolyl]amino]methyl] -1-piperidyl]pyrimidine-5-carbohydroxamic acid]
GI50 [1]: 1320 nM and 1990 nM and 1190 nM | GI50 [2, 13]: 3680 nM | GI50 ([2]; UT-7, replicates 1-3): 3940 nM and 3670 nM | GI50 [3, 14]: 578 nM | GI50 [3, 15]: 721 nM | GI50 ([3]; KASUMI-1, replicates 1-3): 635 nM and 379 nM | GI50 ([4]; Homo sapiens, MONO-MAC-6, 48 h): 617 nM | GI50 ([4]; Homo sapiens, MONO-MAC-6, MONO-MAC-6, replicates 1-3): 785 nM | GI50 ([4]; MONO-MAC-6, replicates 1-3): 600 nM and 466 nM | GI50 [5, 16]: > 10000 nM | GI50 [5, 17]: > 10000 nM | GI50 ([5]; OCI-AML3, replicates 1-3): > 10000 nM | GI50 [6, 18]: 2960 nM | GI50 ([6]; TF-1, replicates 1-3): 2580 nM and 2690 nM | GI50 ([7]; Homo sapiens): 1880 nM | GI50 [7]: 1320 nM and 1360 nM | CD11b (%) [8, 19]: 43.21% | CD11b (%) [8, 20]: 30.14% | CD11b (%) [8, 21]: 23.69% | CD11b (%) [8, 22]: 38.45% | CD11b (%) [8, 23]: 30.14% | CD11b (%) [8, 24]: 35.24% | CD11b (%) [8, 25]: 35.47% | CD11b (%) [8, 26]: 25.49% | CD11b-positive cells (%) ([8]; sample AML-1, 200 nM): 30.6% | CD11b-positive cells (%) ([8]; sample AML-1, 500 nM): 43.2% | CD11b-positive cells (%) ([8]; sample AML-2, 200 nM): 15.2% | CD11b-positive cells (%) ([8]; sample AML-2, 500 nM): 30.1% | CD11b-positive cells (%) ([8]; sample AML-3, 200 nM): 15.5% | CD11b-positive cells (%) ([8]; sample AML-3, 500 nM): 23.7% | CD11b-positive cells (%) ([8]; sample AML-4, 200 nM): 21.9% | CD11b-positive cells (%) ([8]; sample AML-4, 500 nM): 38.4% | CD11b-positive cells (%) ([8]; sample AML-5, 200 nM): 19.2% | CD11b-positive cells (%) ([8]; sample AML-5, 500 nM): 30.1% | CD11b-positive cells (%) ([8]; sample AML-6, 200 nM): 27.2% | CD11b-positive cells (%) ([8]; sample AML-6, 500 nM): 35.2% | CD11b-positive cells (%) ([8]; sample AML-7, 200 nM): 30.1% | CD11b-positive cells (%) ([8]; sample AML-7, 500 nM): 35.5% | CD11b-positive cells (%) ([8]; sample AML-8, 200 nM): 16.2% | CD11b-positive cells (%) ([8]; sample AML-8, 500 nM): 25.5% | GI50 ([9]; Homo sapiens, MOLM-13, 48 h): 558 nM | GI50 [9, 27]: 412 nM | GI50 ([9]; MOLM-13, replicates 1-3): 685 nM and 576 nM | GI50 ([10]; Homo sapiens, ML-2, 48 h): 844 nM | GI50 [10, 28]: 869 nM | GI50 ([10]; ML-2, replicates 1-3): 812 nM and 849 nM | GI50 [11, 29]: 1020 nM and 1180 nM | GI50 [11, 30]: 1190 nM | GI50 [11, 31]: 1360 nM | GI50 ([12]; Homo sapiens, MV4-11, 48 h): 292 nM | GI50 ([12]; MV4-11, replicates 1-3): 498 nM and 125 nM and 252 nM
